# In PubChem BioAssay (NCI):
# “And” between values parts separate entries of the source, which are not always exact repeats. Equal entries are not always repeated.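 Compound exposure: 48 hours, 5 concentrations, 96-well plates. GI50: concentration for 50% inhibition of growth. TGI denotes the concentration required for complete inhibition of growth.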
# What was measured:
# Test in all cases: DTP human tumour cell line panel, 48 h
# SK-MEL-28 melanoma = system: SK-MEL-28 melanoma
# BT-549 breast = system: BT-549 breast
# A498 renal = system: A498 renal
# SNB-75 CNS = system: SNB-75 CNS
# OVCAR-5 ovarian = system: OVCAR-5 ovarian
# OVCAR-8 ovarian = system: OVCAR-8 ovarian
# PC-3 prostate = system: PC-3 prostate
# U251 CNS = system: U251 CNS
# UACC-257 melanoma = system: UACC-257 melanoma
# K-562 leukemia = system: K-562 leukemia
SMILES,GI50 (SK-MEL-28 melanoma),TGI (SK-MEL-28 melanoma),GI50 (BT-549 breast),TGI (BT-549 breast),GI50 (A498 renal),TGI (A498 renal),GI50 (SNB-75 CNS),TGI (SNB-75 CNS),GI50 (OVCAR-5 ovarian),TGI (OVCAR-5 ovarian),GI50 (OVCAR-8 ovarian),TGI (OVCAR-8 ovarian),GI50 (PC-3 prostate),TGI (PC-3 prostate),GI50 (U251 CNS),TGI (U251 CNS),GI50 (UACC-257 melanoma),TGI (UACC-257 melanoma),GI50 (K-562 leukemia),TGI (K-562 leukemia)
Cn1cc(C2=C(c3cccc4ccccc34)C(=O)NC2=O)c2ccccc21,8910 nM,> 25 µM,7.49 µM,19.7 µM,6.76 µM,22.5 µM,3.73 µM,> 25 µM,12800 nM,> 25 µM,7170 nM,19 µM,7510 nM,> 25 µM,7440 nM,> 25 µM,12.1 µM,> 25 µM,10300 nM,> 25 µM
Cn1nccc1Nc1nccc(-c2cc3c(s2)C(C)(C)N(CCN2CCOCC2)C3=O)n1,348 nM,> 100 µM,19 µM,99.8 µM,0.659 µM,5.99 µM,15.9 µM,> 100 µM,498 nM,> 100 µM,24300 nM,> 100 µM,28800 nM,> 100 µM,33700 nM,> 100 µM,0.301 µM,> 100 µM,11700 nM,> 100 µM
C1=Cc2ccccc2Nc2ccccc21,> 100000 nM,> 100 µM,> 100 µM,> 100 µM,> 100 µM,> 100 µM,> 100 µM,> 100 µM,> 100000 nM,> 100 µM,> 100000 nM,> 100 µM,> 100000 nM,> 100 µM,> 100000 nM,> 100 µM,> 100 µM,> 100 µM,> 100000 nM,> 100 µM
O=c1c2cccc(Cl)c2sc2c(NCCCNCCO)nc3ccccc3c12,1850 nM,3.54 µM,14.8 µM,30.6 µM,5.64 µM,19.3 µM,7.69 µM,22 µM,2800 nM,10.1 µM,2910 nM,11.9 µM,3450 nM,15.5 µM,1840 nM,4.13 µM,10.4 µM,28 µM,1810 nM,4.03 µM
O=C(Nc1ccccc1O)c1cccc(NC2=C(Cl)C(=O)N(Cc3ccccc3)C2=O)c1,7230 nM,20.5 µM,11.9 µM,29.8 µM,14.2 µM,27.7 µM,13.5 µM,33.1 µM,13400 nM,27.7 µM,2060 nM,4.7 µM,13700 nM,26.6 µM,3380 nM,13.9 µM,4.44 µM,16.6 µM,2150 nM,9.06 µM
CC[C@@H](C(=O)[C@@H](C)[C@@H](O)[C@H](C)[C@@H]1O[C@@H]([C@@H](CC)C(=O)O)CC[C@@H]1C)C1O[C@]2(C=CC(=O)[C@]3(CC[C@@](C)([C@H]4CC[C@](O)(CC)[C@H](C)O4)O3)O2)[C@H](C)C[C@@H]1C (some centres not stated),1260 nM,2.53 µM,0.22 µM,13.1 µM,0.0631 µM,0.877 µM,1.21 µM,7.12 µM,734 nM,21.5 µM,1730 nM,> 45.2 µM,66.5 nM,15.5 µM,79.1 nM,13.3 µM,0.169 µM,16.7 µM,371 nM,> 27.4 µM
CC(C)(C)NC(C1=CC(C)(C)c2ccccc2C1=O)c1ccccc1 (configuration not stated),1600 nM,2.95 µM,1.61 µM,4.92 µM,1.87 µM,6.37 µM,1.02 µM,2.57 µM,1820 nM,3.78 µM,1740 nM,4.19 µM,1630 nM,3.42 µM,1540 nM,2.87 µM,1.42 µM,2.94 µM,1670 nM,3.86 µM
CCN(CC)CCCC(C)Nc1cnc(C(=O)Nc2ccc(Cl)c3cccnc23)cn1 (configuration not stated),1790 nM,3.28 µM,1.59 µM,3.08 µM,5.48 µM,19.5 µM,3.18 µM,15.1 µM,1830 nM,3.6 µM,3170 nM,10 µM,1320 nM,2.82 µM,1930 nM,3.83 µM,2.91 µM,7.96 µM,1050 nM,3.71 µM
CCC(C)(C)C(=O)O[C@H]1C[C@@H](C)C=C2C=C[C@H](C)[C@H](CC[C@@H]3C[C@@H](O)CC(=O)O3)[C@H]21,5050 nM,18.8 µM and > 30 µM,4.61 µM,18.2 µM,0.156 µM,–,–,5.37 µM and > 30 µM,9190 nM,22.9 µM,–,18.2 µM and 20.6 µM,367 nM,14.5 µM,371 nM,5.44 µM and > 30 µM,10.8 µM,25 µM and > 30 µM,5530 nM,22.8 µM and > 30 µM
COc1ccc2c(c1)C(=O)/C(=C/c1cccc(OCC(=O)Nc3nc4c(s3)CCCC4)c1)O2,1580 nM,3.22 µM,1.74 µM,4.49 µM,14.3 µM,27.7 µM,1.75 µM,12 µM,1690 nM,3.61 µM,1300 nM,8.71 µM,285 nM,1.01 µM,772 nM,4.97 µM,11.2 µM,24.4 µM,1000 nM,> 23 µM
